Laboratory results as given in patent publication US20250346599A1, “TRICYCLIC PHTHALAZINONE PARP INHIBITORS AND METHODS OF USE” (Valo Health, Inc., priority 2022, published 2025).

Legend:
[1] = target: human MDR1 (P-glycoprotein; P-gp) (Homo sapiens (Human), UniProt P08183); test: bi-directional MDCK-MDR1 permeability assay; assay type: in vitro ADME; settings: for Papp A→B: dog; for Papp A→B / efflux ratio: MDCK-MDR1; for Papp A→B / MDCK-MDR1 Papp A→B (10^−6 cm/s): apical to basolateral direction; for efflux ratio: human, read-out: MDCK-MDR1 ER; for efflux ratio / MDCK-MDR1 ER: efflux ratio B→A/A→B
From the text: The bi-directional assay containing a Mandin Darby canine kidney (MDCK) cell line transfected with human MDR1 gene (P-glycoprotein; P-gp) designed to overexpress the MDR1 efflux transporter, a major efflux transporter at the blood brain barrier (BBB), uses an established method that measures the rate of flux of a compound across polarized cell monolayers. As well appreciated in the art, the data generated from the MDCK-MDR1 permeability assay may be used to predict in vivo absorption of drugs. The bi-directional MDCK-MDR1 permeability assay can identify and quantify levels of active efflux. Screening compounds in both the apical to basolateral direction (A→B) and basolateral to apical direction (B→A) across the cell monolayer provides a ratio of B→A/A→B (efflux ratio; “ER”). Unlike the Caco-2 assay, the MDCK-MDR1 assay is not subject to potential efflux interference by breast cancer resistance protein (BCRP). […] The data may further be used to predict blood brain barrier (BBB) permeability via calculation from the data of log(permeability-surface area product) (“log PS”), well-understood to be predictive of the in vivo log([brain concentration]/[plasma concentration]).

PARP1 enzyme = PARP1 enzyme (Homo sapiens (Human), UniProt P09874); test: PARP Mass Spectroscopy Assay (PARP1 enzymatic assay, nicotinamide detection); assay type: biochemical; settings: 5 nM PARP1, 5 uM β-NAD, 60 min at RT, NAM by mass spectrometry
From the text: Materials and Reagents: The PARP1 enzyme was purchased from BPS Bioscience (cat #80501). Tris-HCl, pH 8.0 was purchased from Corning (cat #46-031-CM). Magnesium chloride was purchased from Thermo Fisher Scientific (previously Honeywell Fluka, cat #63020-1L). All other assay components, activated DNA (cat #D4522), core histones (cat #SRP6590), β-Nicotinamide adenine dinucleotide (β-NAD—cat #N8285), 3ABA PARP1 small molecule inhibitor (from the PARP1 Enzyme Activity Assay kit, cat #17-10149), Sodium Chloride (NaCl, cat #56546-1L), Triton X-100 (cat #93443), Dithiothreitol (DTT, cat #43816-250 ML) were all purchased from Millipore Sigma.
Assay Buffer: The assay buffer includes the following reagents: 50 mM Tris-HCl pH 8.0, 50 mM NaCl, 10 mM, MgCl2, 0.01% Triton X-100, and 1 mM DTT.
PARP1 enzymatic assays were performed in 384-well plates in a total volume of 20 μL in the assay buffer. For concentration response curves, compounds were serially diluted 3-fold from 2 mM highest concentration […] to generate a 10-point curve, and 125 nL was transferred to the assay plate using the Echo acoustic dispenser for a final concentration range of 26.6 μM to […] in 10 μL reaction. Five microliters of 10 nM PARP1 enzyme and 100 nM core histones (2×) mix were added to the assay plates and pre-incubated for 30 mins at room temperature (RT). The reaction was initiated by the addition of a 5 μL of 10 uM β-NAD plus 0.02 mg/mL activated DNA (2×) mix. The reaction is incubated for 60 min at RT. The final concentration of the PARP1 enzyme and substrate concentrations were 5 nM and 5 uM, respectively. The positive control (high signal) and negative control (low signal) wells had 125 nL of DMSO in place of compounds. After the incubation is complete, the reaction is stopped by the addition of 10 μL of 10 uM of the 3ABA PARP1 inhibitor, incubated for 5 min at RT, and placed in the −80 C freezer for shipment to the Valo Health site in Branford Connecticut where mass spectrometry will be used to directly detect quantities of nicotinamide (NAM).
The percent inhibition of enzyme activity was calculated according to the following equation: […]
The values of Ssample, Shigh, and Slow in the equation refer to the NAM concentration detected in the assay wells, high control wells, and low control wells, respectively. To determine inhibitor IC50 values, % inhibition of the CRCs (concentration response curves) was fitted to the standard single-site four-parameter logistic equation.

Chain of human MDR1 (P-glycoprotein; P-gp) (P08183 whole entry): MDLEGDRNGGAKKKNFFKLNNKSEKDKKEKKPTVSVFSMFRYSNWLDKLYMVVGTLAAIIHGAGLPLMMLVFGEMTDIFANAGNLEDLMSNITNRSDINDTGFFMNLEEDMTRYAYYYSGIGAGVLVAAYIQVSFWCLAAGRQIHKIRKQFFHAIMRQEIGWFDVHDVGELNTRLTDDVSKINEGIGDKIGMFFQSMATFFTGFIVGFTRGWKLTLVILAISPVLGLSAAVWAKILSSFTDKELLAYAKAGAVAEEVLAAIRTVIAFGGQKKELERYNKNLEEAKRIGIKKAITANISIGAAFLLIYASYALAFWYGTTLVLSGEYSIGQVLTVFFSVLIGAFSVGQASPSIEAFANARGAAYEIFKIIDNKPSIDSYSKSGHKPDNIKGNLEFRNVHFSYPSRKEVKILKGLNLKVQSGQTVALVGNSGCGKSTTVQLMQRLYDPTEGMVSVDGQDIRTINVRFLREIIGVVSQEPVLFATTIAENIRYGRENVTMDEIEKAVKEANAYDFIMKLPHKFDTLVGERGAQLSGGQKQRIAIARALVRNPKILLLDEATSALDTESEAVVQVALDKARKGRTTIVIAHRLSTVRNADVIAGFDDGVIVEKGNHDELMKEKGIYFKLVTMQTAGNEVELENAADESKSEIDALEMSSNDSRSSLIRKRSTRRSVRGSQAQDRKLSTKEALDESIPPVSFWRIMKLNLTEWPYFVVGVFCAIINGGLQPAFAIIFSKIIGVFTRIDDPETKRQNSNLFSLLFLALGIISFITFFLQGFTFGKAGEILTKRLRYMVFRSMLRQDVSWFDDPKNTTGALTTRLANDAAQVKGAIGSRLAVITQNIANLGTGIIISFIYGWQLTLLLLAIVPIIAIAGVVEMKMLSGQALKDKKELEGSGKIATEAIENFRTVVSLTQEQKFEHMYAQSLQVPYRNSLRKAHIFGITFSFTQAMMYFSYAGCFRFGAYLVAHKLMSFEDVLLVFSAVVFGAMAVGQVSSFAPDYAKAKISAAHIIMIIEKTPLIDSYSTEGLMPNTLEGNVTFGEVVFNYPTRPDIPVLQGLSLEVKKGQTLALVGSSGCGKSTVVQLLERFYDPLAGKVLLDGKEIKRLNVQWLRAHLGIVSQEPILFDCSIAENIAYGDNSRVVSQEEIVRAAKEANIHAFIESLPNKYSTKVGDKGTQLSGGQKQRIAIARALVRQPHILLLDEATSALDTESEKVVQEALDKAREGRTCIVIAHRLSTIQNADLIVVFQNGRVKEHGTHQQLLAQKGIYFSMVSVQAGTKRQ
Chain of PARP1 enzyme (P09874 whole entry): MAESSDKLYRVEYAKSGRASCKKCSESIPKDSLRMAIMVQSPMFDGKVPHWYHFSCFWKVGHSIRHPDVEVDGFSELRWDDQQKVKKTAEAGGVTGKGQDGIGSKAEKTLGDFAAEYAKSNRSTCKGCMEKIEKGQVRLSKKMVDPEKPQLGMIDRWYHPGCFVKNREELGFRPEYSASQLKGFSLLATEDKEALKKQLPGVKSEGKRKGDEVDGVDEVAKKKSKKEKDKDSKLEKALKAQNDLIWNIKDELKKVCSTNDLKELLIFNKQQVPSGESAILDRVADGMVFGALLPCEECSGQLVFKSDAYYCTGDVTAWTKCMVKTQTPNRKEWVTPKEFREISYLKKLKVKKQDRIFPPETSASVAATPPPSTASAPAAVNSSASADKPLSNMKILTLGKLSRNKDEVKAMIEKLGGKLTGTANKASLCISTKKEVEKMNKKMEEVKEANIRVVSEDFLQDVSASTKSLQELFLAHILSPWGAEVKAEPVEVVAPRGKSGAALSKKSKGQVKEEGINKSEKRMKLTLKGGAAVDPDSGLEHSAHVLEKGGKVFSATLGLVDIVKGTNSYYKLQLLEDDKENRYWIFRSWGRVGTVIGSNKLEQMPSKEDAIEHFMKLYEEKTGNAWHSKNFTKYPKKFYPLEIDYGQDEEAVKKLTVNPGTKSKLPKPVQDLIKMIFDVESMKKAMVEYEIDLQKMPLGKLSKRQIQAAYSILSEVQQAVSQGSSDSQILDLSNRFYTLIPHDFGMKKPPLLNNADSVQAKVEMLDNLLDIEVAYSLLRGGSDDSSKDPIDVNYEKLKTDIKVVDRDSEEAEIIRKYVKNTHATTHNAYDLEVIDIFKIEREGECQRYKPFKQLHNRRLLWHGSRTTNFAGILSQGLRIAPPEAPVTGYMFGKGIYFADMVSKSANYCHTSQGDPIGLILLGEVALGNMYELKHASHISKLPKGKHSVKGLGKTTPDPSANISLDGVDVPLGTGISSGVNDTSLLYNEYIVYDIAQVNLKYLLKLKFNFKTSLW

Compound	IC50 (PARP1 enzyme) [nM]	MDCK-MDR1 Papp A→B (10^−6 cm/s) [1]	MDCK-MDR1 ER [1]	also measured
CN1CCC([C@H]2Nc3cc(F)cc4c(=O)[nH]nc(c34)[C@H]2c2ccc(F)cc2F)CC1 [Compound 0110B, (8R,9S)-9-(2,4-difluorophenyl)-5-fluoro-8-(1-methylpiperidin-4-yl)-2,7,8,9-tetrahydro-3H-pyrido[4,3,2-de]phthalazin-3-one]	45	–	–	Papp A→B [1]: 0.498 ×10⁻⁶ cm/s; efflux ratio [1]: 30.4
O=c1[nH]nc2c3c(cc(F)cc13)NCC2c1ccc(F)cc1F (stereo not drawn) [Compound 0114-5, 9-(2,4-difluorophenyl)-5-fluoro-2,7,8,9-tetrahydro-3H-pyrido[4,3,2-de]phthalazin-3-one]	32	–	–	Papp A→B [1]: 16.1 ×10⁻⁶ cm/s; efflux ratio [1]: 0.995
O=c1[nH]nc2c3c(cc(F)cc13)N[C@H]([C@H]1CCOC1)[C@H]2c1ccc(F)cc1F [Compound 0115A]	10	8.3 10^−6 cm/s	1.73	–
O=c1[nH]nc2c3c(cc(F)cc13)N[C@H]([C@@H]1CCOC1)[C@H]2c1ccc(F)cc1F [Compound 0115B]	190	9.05 10^−6 cm/s	2.04	–
O=c1[nH]nc2c3c(cc(F)cc13)N[C@@H]([C@H]1CCOC1)[C@@H]2c1ccc(F)cc1F [Compound 0115C]	252	4.82 10^−6 cm/s	4.67	–
O=c1[nH]nc2c3c(cc(F)cc13)N[C@@H]([C@@H]1CCOC1)[C@@H]2c1ccc(F)cc1F [Compound 0115D]	–	4.94 10^−6 cm/s	4.28	–
CN1CCC([C@@H]2Nc3cc(F)cc4c(=O)[nH]nc(c34)[C@H]2c2ccccc2Cl)CC1 [Compound 0116B, (8S,9S)-9-(2-chlorophenyl)-5-fluoro-8-(1-methylpiperidin-4-yl)-2,7,8,9-tetrahydro-3H-pyrido[4,3,2-de]phthalazin-3-one]	123	–	–	Papp A→B [1]: 0.471 ×10⁻⁶ cm/s; efflux ratio [1]: 30.8
O=c1[nH]nc2c3c(cc(F)cc13)NC[C@H]2c1ccccc1Cl [Compound 0120A, (R)-9-(2-chlorophenyl)-5-fluoro-2,7,8,9-tetrahydro-3H-pyrido[4,3,2-de]phthalazin-3-one]	87	–	–	Papp A→B [1]: 12.9 ×10⁻⁶ cm/s; efflux ratio [1]: 0.655
O=c1[nH]nc2c3c(cc(F)cc13)NC[C@@H]2c1ccccc1Cl [Compound 0120B, (S)-9-(2-chlorophenyl)-5-fluoro-2,7,8,9-tetrahydro-3H-pyrido[4,3,2-de]phthalazin-3-one]	47	–	–	Papp A→B [1]: 13.3 ×10⁻⁶ cm/s; efflux ratio [1]: 0.612
O=c1[nH]nc2c3c(cc(F)cc13)N[C@H]([C@H]1CCOC1)[C@H]2c1ccccc1Cl [Compound 0121A]	32	5.66 10^−6 cm/s	3.06	–
Cn1ncnc1[C@H]1CNc2cc(F)cc3c(=O)[nH]nc1c23 [Compound 0200B]	–	1.2 10^−6 cm/s	12.3	–
C[C@@H]1Nc2cc(F)cc3c(=O)[nH]nc(c23)[C@H]1c1ncnn1C [Compound 0201B]	–	0.567 10^−6 cm/s	24.7	–
CC[C@@H]1Nc2cc(F)cc3c(=O)[nH]nc(c23)[C@H]1c1ncnn1C [Compound 0202B]	–	0.77 10^−6 cm/s	28.5	–
Cn1ncnc1[C@@H]1c2n[nH]c(=O)c3cc(F)cc(c23)N[C@H]1C1CC1 [Compound 0203B]	–	0.568 10^−6 cm/s	21.7	–
N#Cc1ccc([C@@H]2c3n[nH]c(=O)c4cc(F)cc(c34)N[C@H]2C2CCC(F)(F)CC2)cc1F [Compound 0214B]	20	–	–	–
Cn1ncnc1[C@H]1c2n[nH]c(=O)c3cc(F)cc(c23)N[C@@H]1C1CCC(F)(F)CC1 [Compound 0215A]	–	0.373 10^−6 cm/s	33.3	–
CC(=O)N1CCC([C@@H]2Nc3cc(F)cc4c(=O)[nH]nc(c34)[C@H]2c2ncnn2C)CC1 [Compound 0218B]	–	0.335 10^−6 cm/s	3.98	–
CC(C)(C)C[C@H]1Nc2cc(F)cc3c(=O)[nH]nc(c23)[C@@H]1c1c(F)cc(F)cc1F [Compound 0219A]	512	–	–	–
CC(C)[C@H]1Nc2cc(F)cc3c(=O)[nH]nc(c23)[C@@H]1c1c(F)cc(F)cc1F [Compound 0221A]	2	–	–	–
CC(C)[C@H]1Nc2cc(F)cc3c(=O)[nH]nc(c23)[C@@H]1c1ccccc1Cl [Compound 0222A]	23	–	–	–

Compound	IC50 (PARP1 enzyme) [nM]	MDCK-MDR1 Papp A→B (10^−6 cm/s) [1]	MDCK-MDR1 ER [1]	also measured
CC(=O)N1CCC([C@H]2Nc3cc(F)cc4c(=O)[nH]nc(c34)[C@@H]2c2ccccc2Cl)CC1 [Compound 0223A]	1200	–	–	–
O=c1[nH]nc2c3c(cc(F)cc13)N[C@@H](CF)[C@@H]2c1ccc(Cl)cc1F [Compound 0252A]	57	–	–	–
O=c1[nH]nc2c3c(cc(F)cc13)N[C@H](CF)[C@H]2c1ccc(Cl)cc1F [Compound 0252B]	8	–	–	–
O=c1[nH]nc2c3c(cc(F)cc13)NC(C1(F)CC1)C2c1ccc(Cl)cc1F (stereo not drawn) [Compound 0255-6]	4	–	–	–
O=c1[nH]nc2c3c(cc(F)cc13)N[C@@H](C1(F)CC1)[C@@H]2c1ccc(Cl)cc1F [Compound 0255A]	4	–	–	–
O=c1[nH]nc2c3c(cc(F)cc13)NC(C1(F)CC1)[C@H]2c1ccc(Cl)cc1F (stereo partly drawn) [Compound 0255B]	103	–	–	–
O=c1[nH]nc2c3c(cc(F)cc13)N[C@@H](C1CCN(C3CCC(F)(F)CC3)CC1)[C@@H]2c1ccc(Cl)cc1F [Compound 0256A]	–	5.76 10^−6 cm/s	3.37	–
O=c1[nH]nc2c3c(cc(F)cc13)NC(COCc1ccccc1)C2c1ccccc1Cl (stereo not drawn) [Compound 0257-4]	593	–	–	–
O=c1[nH]nc2c3c(cc(F)cc13)N[C@H](C1(F)CC1)[C@H]2c1ccccc1Cl [Compound 0260A]	2	–	–	–
O=c1[nH]nc2c3c(cc(F)cc13)NC(C1(F)CC1)[C@H]2c1ccccc1Cl (stereo partly drawn) [Compound 0260B]	106	–	–	–
O=c1[nH]nc2c3c(cc(F)cc13)N[C@H](C1CCN(C3CCC(F)(F)CC3)CC1)[C@H]2c1ccccc1Cl [Compound 0261A]	896	–	–	–
O=c1[nH]nc2c3c(cc(F)cc13)N[C@@H](C1CCN(C3CCC(F)(F)CC3)CC1)[C@@H]2c1ccccc1Cl [Compound 0261B]	301	–	–	–
Cn1ncnc1[C@@H]1c2n[nH]c(=O)c3cc(F)cc(c23)N[C@H]1C1CCN(C2CCC(F)(F)CC2)CC1 [Compound 0266A]	1680	–	–	–
Cn1ncnc1[C@H]1c2n[nH]c(=O)c3cc(F)cc(c23)N[C@@H]1C1CCN(C2CCC(F)(F)CC2)CC1 [Compound 0266B]	5780	–	–	–
O=c1[nH]nc2c3c(cc(F)cc13)NC(COCc1ccccc1)C2c1ccc(F)cc1F (stereo not drawn) [Compound 0267-4]	13	–	–	–
O=c1[nH]nc2c3c(cc(F)cc13)NC(C1CCN(C3CCC(F)(F)CC3)CC1)C2c1ccc(F)cc1F (stereo not drawn) [Compound 0271-6]	4	–	–	–
O=c1[nH]nc2c3c(cc(F)cc13)N[C@@H](C1CCN(C3CCC(F)(F)CC3)CC1)[C@@H]2c1ccc(F)cc1F [Compound 0271A]	936	–	–	–
O=c1[nH]nc2c3c(cc(F)cc13)N[C@@H](C1CCN(C3CCC(F)(F)CC3)CC1)[C@@H]2c1ccc(F)cc1F [Compound 0271B]	7	–	–	–
N#Cc1ccc([C@H]2c3n[nH]c(=O)c4cc(F)cc(c34)N[C@@H]2C2CCN(C3CCC(F)(F)CC3)CC2)c(F)c1 [Compound 0276A]	281	–	–	–
N#Cc1ccc([C@H]2c3n[nH]c(=O)c4cc(F)cc(c34)N[C@@H]2C2CCN(C3CCC(F)(F)CC3)CC2)c(F)c1 [Compound 0276B]	30	–	–	–
